Where “and” joins values, the source holds several entries; their conditions need not be identical. Equal values may be shown once. Where a name gives a salt, the structure may show the parent alone.
What was measured:
[1] = target: hERG (human ether-a-go-go-related gene) channel current (Homo sapiens, UniProt Q12809); assay: Non GLP hERG channel current study (manual patch); type: cell-based; details: for Hill coefficient: non GLP study
Experimental: (§1) The objective of this study was to examine the in vitro effects of three test articles on the hERG (human ether-a-go-go-related gene) channel current (a surrogate for the rapidly activating delayed rectifier cardiac potassium current, IKr). The concentration-response relationship was evaluated at near-physiological temperature (35-37° C.

hERG = hERG (Homo sapiens, UniProt Q12809); assay: Non GLP hERG channel current study (manual patch); type: cell-based; details: human
Sequence of hERG (Q12809 whole entry): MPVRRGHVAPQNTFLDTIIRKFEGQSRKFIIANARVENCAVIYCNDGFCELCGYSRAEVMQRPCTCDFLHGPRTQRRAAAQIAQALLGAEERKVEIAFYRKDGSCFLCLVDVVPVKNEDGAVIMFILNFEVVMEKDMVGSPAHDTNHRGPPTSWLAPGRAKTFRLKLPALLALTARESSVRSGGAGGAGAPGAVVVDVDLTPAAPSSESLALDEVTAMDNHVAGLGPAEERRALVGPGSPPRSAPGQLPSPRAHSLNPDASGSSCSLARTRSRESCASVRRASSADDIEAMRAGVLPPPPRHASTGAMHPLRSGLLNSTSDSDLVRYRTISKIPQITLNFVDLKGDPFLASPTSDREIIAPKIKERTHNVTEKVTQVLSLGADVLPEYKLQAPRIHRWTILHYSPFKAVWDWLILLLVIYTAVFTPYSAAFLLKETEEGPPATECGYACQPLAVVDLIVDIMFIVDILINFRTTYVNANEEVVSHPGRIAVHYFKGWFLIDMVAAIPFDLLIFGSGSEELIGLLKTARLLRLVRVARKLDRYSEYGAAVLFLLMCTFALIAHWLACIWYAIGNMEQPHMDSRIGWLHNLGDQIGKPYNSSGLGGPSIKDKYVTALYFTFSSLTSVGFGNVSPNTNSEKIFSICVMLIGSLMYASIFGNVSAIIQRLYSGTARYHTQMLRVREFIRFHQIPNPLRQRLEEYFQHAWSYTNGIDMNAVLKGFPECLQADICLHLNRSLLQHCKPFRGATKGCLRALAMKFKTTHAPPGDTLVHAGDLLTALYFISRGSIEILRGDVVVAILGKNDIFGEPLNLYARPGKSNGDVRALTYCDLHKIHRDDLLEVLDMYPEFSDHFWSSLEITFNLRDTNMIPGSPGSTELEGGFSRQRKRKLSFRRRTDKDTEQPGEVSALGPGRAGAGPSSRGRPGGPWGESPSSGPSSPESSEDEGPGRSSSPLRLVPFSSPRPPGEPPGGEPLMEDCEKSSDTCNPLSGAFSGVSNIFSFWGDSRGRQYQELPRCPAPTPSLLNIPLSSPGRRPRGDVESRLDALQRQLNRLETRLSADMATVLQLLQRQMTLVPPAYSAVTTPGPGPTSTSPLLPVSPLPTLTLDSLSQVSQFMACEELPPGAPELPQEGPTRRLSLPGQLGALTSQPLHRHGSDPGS
Experimental: as §1

in vitro [2] = details: 37° C.; for half-life at 10 μM / half-life: simulated gi fluid; for half-life at 10 μM / Half-Life, Rep. 1-3 / half-life / Half-Life, Mean: 10 μM; for % Compound Remaining, Mean / % Compound Remaining, Rep. 1-3: 100 μg/mL
Experimental: Gastrointestinal solution stability was performed along with the Caco-2 cell permeability assay study.

in vitro [3] = details: human
Description: (§2) Based on historical data obtained in the experimental model, the mean permeability value (Papp) for each reference compound was expected to fall within the predetermined specifications.
(§3) Fluorescein was used as the zero-permeability marker in all Caco-2 cell assays as a quality control for the integrity of the Caco-2 monolayer. […] Well-defined criteria (known or readily available to those of ordinary skill in the art) have been established for the acceptance of fluorescein results to validate monolayer integrity.
(§4) Testing concentrations for the in vitro permeability assessment were determined at 1%, 10%, and 100% of the highest strength dissolved in 250 mL. […]

Caco-2 monolayer = assay: in vitro
Description: as §2, §3, §4

[4] = Equilibrium solubility study; details: for solubility thermodynamic: 37 °C, thermodynamic from solid, Equilibrium solubility
[5] = Caco-2, Percent Recovery, Mean, A-B, 10 μM
[6] = Caco-2, Percent Recovery, Rep. 1-3, A-B, 10 μM
[7] = Caco-2, pH 6.5, Permeability, Mean
[8] = Caco-2, pH 6.5, Permeability, Rep. 1-3
[9] = Caco-2, pH 6.5, Permeability, Mean, A-B, Caco-2, pH 6.5/7.4, 10 μM
[10] = Caco-2, pH 6.5, Permeability, Rep. 1-3, A-B, Caco-2, pH 6.5/7.4, 10 μM
[11] = Caco-2, pH 6.5, Permeability, Rep. 1-3, B-A, Caco-2, pH 6.5/7.4, 10 μM
[12] = Caco-2, Percent Recovery, Mean, B-A, 10 μM
[13] = Caco-2, Percent Recovery, Rep. 1-3, B-A, 10 μM
[14] = simulated gastric fluid, 0 minutes
[15] = simulated gastric fluid, 60 minutes
[16] = simulated intestinal fluid, 0 minutes
[17] = simulated intestinal fluid, 180 minutes
[18] = Caco-2, pH 6.5, Permeability, Mean (SD)

Sequence of hERG (human ether-a-go-go-related gene) channel current (Q12809 whole entry): as above

Structure (SMILES): CCC(=O)C(C[C@@H](C)N(C)C)(c1ccccc1)c1ccccc1 [levomethadone]
- IC50 [1]: 828 nM
- Hill coefficient [1]: 0.764
- inhibition at 0.366 µM (hERG; 0.366 μM (n=5), 35-37° C., read-out: Inhibition of hERG current (Mean±SEM)): 36 ± 4.9%
- inhibition at 1.13 µM (hERG; 1.13 μM (n=4), read-out: Inhibition of hERG current (Mean±SEM)): 54.3 ± 6.7%
- inhibition at 3.32 µM (hERG; 3.32 μM (n=4), read-out: Inhibition of hERG current (Mean±SEM)): 73.6 ± 1.5%
- inhibition at 11.2 µM (hERG; 11.2 μM, read-out: Inhibition of hERG current (Mean±SEM)): 90 ± 0.5%

Structure (SMILES): O=C(O)CCCc1ccc(N(CCCl)CCCl)cc1 [Chlorambucil, reference compound]
- half-life at 10 μM (in vitro [2]; Mean, simulated intestinal fluid): 26 min
- half-life at 10 μM (in vitro [2]; Rep. 1-3, simulated intestinal fluid): 26.2 min
- Half-Life, Rep. 1-3 (in vitro [2]; simulated intestinal fluid): 25.7 min

Structure (SMILES): CNC(=C[N+](=O)[O-])NCCSCc1ccc(CN(C)C)o1 [Ranitidine]
- recovery (in vitro [3]; [5]): 101%
- recovery (in vitro [3]; [6]): 100%
- Papp A→B (in vitro [3]; [7]): 0.7 ×10⁻⁶ cm/s
- Papp B→A (in vitro [3]; [7]): 2.4 ×10⁻⁶ cm/s
- Papp A→B (in vitro [3]; [8]): 0.8 ×10⁻⁶ cm/s
- Papp B→A (in vitro [3]; [8]): 2.54 ×10⁻⁶ cm/s
- Percent Recovery, Rep. 1-3 (Caco-2 monolayer; A-B, 10 μM): 99%
- Percent Recovery, Rep. 1-3 (Caco-2 monolayer; B-A, 10 μM): 96% and 92%

Structure (SMILES): CC(CCc1ccccc1)NCC(O)c1ccc(O)c(C(N)=O)c1 (stereo not drawn) [Labetalol]
- recovery (in vitro [3]; [5]): 117%
- recovery (in vitro [3]; [6]): 118%
- Papp A→B (in vitro [3]; [9]): 19.6 ×10⁻⁶ cm/s
- Papp B→A (in vitro [3]; Caco-2, pH 6.5, Permeability, Mean, B-A, Caco-2, pH 6.5/7.4, 10 μM): 49.3 ×10⁻⁶ cm/s
- Papp A→B (in vitro [3]; [10]): 20.2 ×10⁻⁶ cm/s
- Papp B→A (in vitro [3]; [11]): 48.7 ×10⁻⁶ cm/s

Structure (SMILES): CC[C@H]1OC(=O)[C@H](C)[C@@H](O[C@H]2C[C@@](C)(OC)[C@@H](O)[C@H](C)O2)[C@H](C)[C@@H](O[C@@H]2O[C@H](C)C[C@H](N(C)C)[C@H]2O)[C@](C)(O)C[C@@H](C)C(=O)[C@H](C)[C@@H](O)[C@]1(C)O [Erythromycin, reference compound]
- Half-Life, Rep. 1-3 (in vitro [2]; simulated gastric fluid): 6.5 min
- half-life (in vitro [2]; Mean, simulated gastric fluid): 6 min
- half-life (in vitro [2]; Rep. 1-3, simulated gastric fluid): 6.4 min

Structure (SMILES): CC(C)[N+](C)(CCOC(=O)C1c2ccccc2Oc2ccccc21)C(C)C [Propanthaline, reference compound]
- Half-Life, Mean (in vitro [2]; simulated gastric fluid): >60 min
- Half-Life, Rep. 1-3 (in vitro [2]; simulated gastric fluid): >60 min
- Half-Life, Mean (in vitro [2]; simulated intestinal fluid): >180 min
- Half-Life, Rep. 1-3 (in vitro [2]; simulated intestinal fluid): 253.1 min and 251.2 min and 227.0 min

Structure (SMILES): COc1cc2c(c(OC)c1OC)-c1ccc(OC)c(=O)cc1[C@@H](NC(C)=O)CC2 [Colchicine]
- recovery (in vitro [3]; [12]): 91%
- recovery (in vitro [3]; [6]): 88%
- recovery (in vitro [3]; [13]): 88%
- Papp A→B (in vitro [3]; [7]): 0.3 ×10⁻⁶ cm/s
- Papp B→A (in vitro [3]; [7]): 7.3 ×10⁻⁶ cm/s
- Papp A→B (in vitro [3]; [8]): 0.31 ×10⁻⁶ cm/s
- Papp B→A (in vitro [3]; [8]): 7.69 ×10⁻⁶ cm/s
- Percent Recovery, Rep. 1-3 (Caco-2 monolayer; A-B, 10 μM): 78%
- Percent Recovery, Rep. 1-3 (Caco-2 monolayer; B-A, 10 μM): 94%

Structure (SMILES): CCC(=O)C(C[C@H](C)N(C)C)(c1ccccc1)c1ccccc1 [esmethadone HCl]
- % Compound Remaining, Mean (in vitro [2]; [14]): 100 % remaining
- % Compound Remaining, Rep. 1-3 (in vitro [2]; [14]): 100.0 % remaining
- % Compound Remaining, Mean (in vitro [2]; [15]): 109 % remaining
- % Compound Remaining, Rep. 1-3 (in vitro [2]; [15]): 110.2 % remaining and 127.3 % remaining and 90.0 % remaining
- % Compound Remaining, Mean (in vitro [2]; [16]): 100 % remaining
- % Compound Remaining, Rep. 1-3 (in vitro [2]; [16]): 100.0 % remaining
- % Compound Remaining, Mean (in vitro [2]; [17]): 97 % remaining
- % Compound Remaining, Rep. 1-3 (in vitro [2]; [17]): 89.6 % remaining and 96.6 % remaining and 105.9 % remaining
- recovery (in vitro [3]; Caco-2, Mean recovery values, across the assays): 51 to 74%
- recovery (in vitro [3]; Caco-2, Percent Recovery, Mean (SD), A-B, 1 μg/mL): 51%
- recovery (in vitro [3]; Caco-2, Percent Recovery, Mean (SD), A-B, 10 μg/mL): 57%
- recovery (in vitro [3]; Caco-2, Percent Recovery, Mean (SD), A-B, 100 μg/mL): 61%
- recovery (in vitro [3]; Caco-2, Percent Recovery, Mean (SD), B-A, 1 μg/mL): 60%
- recovery (in vitro [3]; Caco-2, Percent Recovery, Mean (SD), B-A, 10 μg/mL): 74%
- recovery (in vitro [3]; Caco-2, Percent Recovery, Mean (SD), B-A, 100 μg/mL): 74%
- recovery (in vitro [3]; Caco-2, Percent Recovery, Rep. 1-3, A-B, 1 μg/mL): 53%
- recovery (in vitro [3]; Caco-2, Percent Recovery, Rep. 1-3, A-B, 10 μg/mL): 57%
- recovery (in vitro [3]; Caco-2, Percent Recovery, Rep. 1-3, A-B, 100 μg/mL): 64%
- recovery (in vitro [3]; Caco-2, Percent Recovery, Rep. 1-3, B-A, 1 μg/mL): 65%
- recovery (in vitro [3]; Caco-2, Percent Recovery, Rep. 1-3, B-A, 10 μg/mL): 67%
- recovery (in vitro [3]; Caco-2, Percent Recovery, Rep. 1-3, B-A, 100 μg/mL): 74%
- Papp A→B (in vitro [3]; [18]): 16.3 ×10⁻⁶ cm/s
- Papp B→A (in vitro [3]; [18]): 28.6 ×10⁻⁶ cm/s
- Papp A→B (in vitro [3]; [8]): 21 ×10⁻⁶ cm/s
- Papp B→A (in vitro [3]; [8]): 29.4 ×10⁻⁶ cm/s
- Percent Recovery, Rep. 1-3 (Caco-2 monolayer; A-B, 10 μg/mL): 54%
- Percent Recovery, Rep. 1-3 (Caco-2 monolayer; A-B, 100 μg/mL): 56%
- Percent Recovery, Rep. 1-3 (Caco-2 monolayer; B-A, 1 μg/mL): 58% and 59%
- Percent Recovery, Rep. 1-3 (Caco-2 monolayer; B-A, 10 μg/mL): 82%
- Percent Recovery, Rep. 1-3 (Caco-2 monolayer; B-A, 100 μg/mL): 82% and 68%
- Permeability category (Caco-2 monolayer; Caco-2): high permeability
- solubility thermodynamic ([4]; pH 1.2, simulated gastric fluid, Mean, pH 1.2, 37° C.): 58.8 mg/mL
- solubility thermodynamic ([4]; pH 1.2, simulated gastric fluid, replicates, pH 1.2, 37° C., individual replicates): 62.1 mg/mL
- solubility thermodynamic ([4]; pH 4.5, aqueous buffer, Mean, pH 4.5, 37° C.): 66.9 mg/mL
- solubility thermodynamic ([4]; pH 4.5, aqueous buffer, replicates, pH 4.5, 37° C., individual replicates): 67 mg/mL
- solubility thermodynamic ([4]; pH 6.8, aqueous buffer, Mean, pH 6.8, 37° C.): 3.2 mg/mL
- solubility thermodynamic ([4]; pH 6.8, aqueous buffer, replicates, pH 6.8, 37° C., individual replicates): 3.1 mg/mL
- Stability of the drug substance in each buffer ([4]; over the total time of the solubility study): ≤ 10%
- Equilibrium solubility, replicates ([4]; pH 1.2, 37° C., individual replicates): 60.0 mg/mL and 54.2 mg/mL
- Equilibrium solubility, replicates ([4]; pH 4.5, 37° C., individual replicates): 66.7 mg/mL and 66.8 mg/mL
- Equilibrium solubility, replicates ([4]; pH 6.8, 37° C., individual replicates): 3.2 mg/mL

Structure (SMILES): CC(C)NCC(O)COc1cccc2ccccc12 (stereo not drawn) [Propranolol]
- recovery (in vitro [3]; [5]): 104%
- recovery (in vitro [3]; [12]): 108%
- recovery (in vitro [3]; [6]): 106%
- recovery (in vitro [3]; [13]): 106%
- Papp B→A (in vitro [3]; [7]): 47.5 ×10⁻⁶ cm/s
- Papp A→B (in vitro [3]; [9]): 40.9 ×10⁻⁶ cm/s
- Papp B→A (in vitro [3]; [8]): 48.1 ×10⁻⁶ cm/s
- Papp A→B (in vitro [3]; [10]): 45.4 ×10⁻⁶ cm/s
- Papp B→A at 10 μM (in vitro [3]; [11]): 48.8 ×10⁻⁶ cm/s
- Percent Recovery, Rep. 1-3 (Caco-2 monolayer; A-B, 10 μM): 99%
- Permeability, Rep. 1-3 (Caco-2 monolayer; A-B, Caco-2, pH 6.5/7.4, 10 μM): 40.35 10^−6 cm/s and 36.94 10^−6 cm/s
- Percent Recovery, Rep. 1-3 (Caco-2 monolayer; B-A, 10 μM): 115% and 102%
- Permeability, Rep. 1-3 (Caco-2 monolayer; human, Caco-2, pH 6.5): 45.79 10^−6 cm/s

Structure (SMILES): CCC(=O)C(CC(C)N(C)C)(c1ccccc1)c1ccccc1 (racemic) [racemic methadone]
- Hill coefficient [1]: 0.743
- IC50 (hERG): 1000 nM
- inhibition at 0.3 µM (hERG; 0.3 μM, read-out: Inhibition of hERG current (Mean, SEM; n=4)): 33.4%
- inhibition at 1 µM (hERG; 1 uM, read-out: Inhibition of hERG current (Mean, SEM; n=4)): 43.6%
- inhibition at 10 µM (hERG; 10 μM, read-out: Inhibition of hERG current (Mean, SEM; n=4)): 86.9%
- inhibition at 3 μM (hERG; 3 AM, read-out: Inhibition of hERG current (Mean, SEM; n=4)): 71.1%
